# Values of other authors as cited in US6103262A, “Modified-release metronidazole compositions and methods for making and using same” (priority 1994, dated 2000).
# Assays:
# [1] = tested on: Trichomonas vaginalis, Entamoeba histolytica, Helicobacter species, anaerobic bacteria
# [2] = tested on: trichomoniasis or bacterial vaginosis
# [3] = in vivo
smiles,measurement,setting,value
"Cc1ncc([N+](=O)[O-])n1CCO [metronidazole, 1-(2-hydroxyethyl)-2-methyl-5-nitroimidazole]",aqueous solubility (in words),,aqueous soluble
same,killing of microorganisms,[1],effective for killing
same,side effects,[2]; in vivo,significant and undesirable side effects such as nausea
same,"occurrence and severity of side effects, lower dosages","[2]; in vivo, po",significantly reduce the occurrence and severity of side effects
same,clinical efficacy,[2]; single large dose (~2 grams) as a bolus,clinically effective
same,absorption by the bloodstream,[3],rapidly absorbed
same,clearance from the bloodstream,[3],rapidly cleared
